# Source: patent publication US20260060918A1, “HIGH-PERMEABILITY INCLUSION FOR SOOTHING SKIN REDNESS, HEAT, AND PAIN, AND PREPARATION METHOD AND USE THEREOF” (N.O.D TOPIA (GUANGZHOU) BIOTECHNOLOGY CO.,LTD., priority 2023, published 2026)
# Test system: LPS-induced HaCaT cells
# Assay: Anti-inflammatory and soothing experiment: inflammatory factors secreted by LPS-induced HaCaT cells (ELISA)
# Assay type: cell-based
# Conditions: inclusion at volume ratio of 0.3% (dexamethasone 50 µg/mL) with 50 µg/ml LPS, 24 h, supernatant, Mean ± SD, n = 3
# Method: In vitro stimuli can activate toll-like receptors (TLR-2 and TLR-4) on keratinocytes, leading to the activation of MAPK and NF-κB pathways. Then, the keratinocytes produce IL-1, IL-6, IL-8, TNF-α, and human HBD-2 (defensins), which induces inflammation and causes skin discomfort. The anti-inflammatory effects of the inclusions in Examples 1 to 9 and Comparative Examples 1 to 9 were evaluated by using LPS-induced HaCaT cells as an inflammatory cell model in vitro and detecting inflammatory factors IL-la, […], and TNF-α secreted in cell supernatant by an ELISA kit.
# The HaCaT cells were inoculated into a 12-well plate with a density of 2.0-3.0×10^5 cells/well, and incubated in an incubator at a temperature of 37±1° C. and a humidity of 90±5%. After the incubation, the culture plate was taken out, and the original culture solution in the well was discarded. In the sample group, 1 mL of test samples with a volume ratio of 0.3% and 50 µg/ml of LPS culture solution were added to each well; in the model group, only 50 µg/mL of LPS culture solution were added; in the positive control group, 1 mL of dexamethasone ([…]) and LPS ([…]) culture solution was added, while in the blank negative control group, 1 mL of culture solution was only added for culturing 24 h. The supernatant was collected by centrifugation and stored at −80° C. Cytokines of IL-la, […], and TNF-α were determined by using the method described in the ELISA kit, and signals were detected at a wavelength of 450 nm. The content of inflammatory factors was shown in Table 6 by the secretion amount (pg) of IL-i1α, IL-1β, and TNF-α contained in each mL of the culture solution, and triplicate wells were set for each test.
compound,measurement,setting,value
"C[C@@H]1C[C@H]2[C@@H]3CCC4=CC(=O)C=C[C@]4(C)[C@@]3(F)[C@@H](O)C[C@]2(C)[C@@]1(O)C(=O)CO [Dexamethasone, dexamethasone]",IL-1α secretion amount in culture solution,model group 63.29 ± 0.39,36.30 ± 0.21 pg/mL
same,IL-1β secretion amount in culture solution,model group 66.29 ± 0.29,24.67 ± 0.65 pg/mL
same,TNF-α secretion amount in culture solution,model group 92.33 ± 2.25,77.27 ± 2.96 pg/mL
